Consider seven molecules from PubChem BioAssay (NCI).

As a reminder, the GI50 is the concentration at which growth is held to half of that of the control. One may read the TGI as the concentration at which net growth stops. Read a high TGI as less potent growth arrest.

“And” between values parts separate entries of the source, which are not always exact repeats. Equal values may be shown once.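 Grown in 96-well plates, cells were treated for 48 hours with each compound at five concentrations. Insufficient inhibition: endpoint recorded as highest concentration tested. GI50: concentration for 50% inhibition of growth. TGI: concentration producing complete growth inhibition.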

Among the test systems are HCT-116 colon; HS 578T breast; MDA-MB-231 breast; MOLT-4 leukemia; NCI-H522 lung; OVCAR-5 ovarian; OVCAR-8 ovarian; T-47D breast; TK-10 renal; U251 CNS.
Holding throughout (experiment): DTP human tumour cell line panel, 48 h

As for `COc1ccc(COc2cc3oc(=O)c4cc(C(C)O)ccc4c3cc2OC)cc1` (centres undefined), the GI50 with HCT-116 colon was 13.3 µM; in the assay with HS 578T breast, 8.79 µM; with MDA-MB-231 breast, 9.6 µM; in the assay on MOLT-4 leukemia, over 23 µM; in the assay with NCI-H522 lung, 10.1 µM; in the assay with OVCAR-5 ovarian, 41.5 µM. Further, the GI50 in the assay on OVCAR-8 ovarian was 14.8 µM; with T-47D breast, 12.7 µM; with TK-10 renal, 17.4 µM; in the assay on U251 CNS, 10.5 µM. Also, the TGI in the assay with HCT-116 colon is over 100 µM; with HS 578T breast, over 67.4 µM; with MDA-MB-231 breast, 97.5 µM; in the assay with MOLT-4 leukemia, over 100 µM; with NCI-H522 lung, over 95.3 µM; in the assay on OVCAR-5 ovarian it was over 100 µM. For the same molecule, the total growth inhibition concentration (TGI) is 52.2 µM with OVCAR-8 ovarian, over 100 µM in the assay on T-47D breast, 62.6 µM in the assay with TK-10 renal and over 71.6 µM with U251 CNS.

As to `[Cl][Cu][Cl]`, the GI50 in the assay on HCT-116 colon, in the assay with HS 578T breast, in the assay with MDA-MB-231 breast, in the assay with MOLT-4 leukemia, in the assay with NCI-H522 lung and in the assay with OVCAR-5 ovarian was over 10 µM in each case. The GI50 with OVCAR-8 ovarian, in the assay on T-47D breast, with TK-10 renal and with U251 CNS was over 10 µM throughout. Also, the TGI with HCT-116 colon, in the assay with HS 578T breast, in the assay with MDA-MB-231 breast, with MOLT-4 leukemia, in the assay with NCI-H522 lung and in the assay on OVCAR-5 ovarian was over 10 µM throughout. Besides, the concentration for total growth inhibition (TGI) in the assay on OVCAR-8 ovarian, in the assay on T-47D breast, in the assay with TK-10 renal and with U251 CNS was over 10 µM in each case.

On to `CN(C)CCCn1c2c(c3cc4c(cc3c1=O)OCO4)C(=O)c1ccccc1-2`, for which the TGI in the assay on HCT-116 colon came to 0.384 µM; in the assay with HS 578T breast it was 43.4 µM; with MDA-MB-231 breast, 4.29 µM; with MOLT-4 leukemia it was 0.792 µM; in the assay with NCI-H522 lung, 35.2 µM; with OVCAR-5 ovarian, 45.7 µM. In addition, the concentration for total growth inhibition (TGI) is 0.922 µM in the assay with OVCAR-8 ovarian, over 100 µM in the assay with T-47D breast, 17.9 µM in the assay on TK-10 renal and 3.5 µM in the assay on U251 CNS. In addition, the GI50 in the assay on HS 578T breast is 11.5 µM; in the assay with MDA-MB-231 breast it was 0.465 µM; in the assay on MOLT-4 leukemia it was under 0.0218 µM; in the assay with NCI-H522 lung it was 4.59 µM; with OVCAR-5 ovarian, 11.1 µM; in the assay with OVCAR-8 ovarian, 0.0576 µM. Further, the GI50 in the assay with T-47D breast is 22.7 µM; in the assay on TK-10 renal, 3.42 µM; in the assay with U251 CNS, 0.081 µM.

For the molecule `Nc1nc(-c2ccc(Cl)cc2)nc2c1sc(=S)n2-c1ccccc1`, the GI50 in the assay with HCT-116 colon was 2.94 µM; in the assay on HS 578T breast, 3.31 µM; with MDA-MB-231 breast, 3.44 µM; in the assay on MOLT-4 leukemia it was over 100 µM; with NCI-H522 lung it was 5.64 µM; with OVCAR-5 ovarian it was 4.98 µM. The GI50 in the assay with OVCAR-8 ovarian is 5.16 µM; in the assay with T-47D breast it was 2.13 µM; with TK-10 renal, 2.22 µM; with U251 CNS, 3.5 µM. Besides, the TGI with HCT-116 colon is 10.9 µM; in the assay on HS 578T breast it was 9.39 µM; in the assay on MDA-MB-231 breast it was 10.6 µM; with MOLT-4 leukemia it was over 100 µM; in the assay with NCI-H522 lung it was over 100 µM; in the assay on OVCAR-5 ovarian, 20.5 µM. Moreover, the TGI was over 100 µM in the assay with OVCAR-8 ovarian, 5.54 µM in the assay on T-47D breast, 5.9 µM in the assay with TK-10 renal and 11.9 µM in the assay on U251 CNS.

Take `CC1CCC2C(CN(CC3=C(C(F)(F)F)OC4OC5(C)CCC6C(C)CCC3C46OO5)CC3=C(C(F)(F)F)OC4OC5(C)CCC6C(C)CCC3C46OO5)=C(C(F)(F)F)OC3OC4(C)CCC1C32OO4` (centres undefined): the GI50 was 11.6 µM in the assay on HCT-116 colon; 17.9 µM in the assay on HS 578T breast; 13.4 µM in the assay with MDA-MB-231 breast; 9.11 µM in the assay on MOLT-4 leukemia; 16.2 µM with NCI-H522 lung; 15.3 µM with OVCAR-5 ovarian. For the same molecule, the GI50 is 14.1 µM in the assay with OVCAR-8 ovarian, 3.97 µM with T-47D breast, 15.4 µM in the assay with TK-10 renal and 5.12 µM in the assay on U251 CNS. The TGI was 24.5 µM in the assay with HCT-116 colon; 61.4 µM in the assay on HS 578T breast; 36.6 µM in the assay with MDA-MB-231 breast; 39.9 µM in the assay on MOLT-4 leukemia; 42.2 µM with NCI-H522 lung; over 100 µM in the assay on OVCAR-5 ovarian. Moreover, the concentration for total growth inhibition (TGI) was 76.4 µM with OVCAR-8 ovarian, 27.2 µM with T-47D breast, 30 µM in the assay on TK-10 renal and 19.2 µM in the assay on U251 CNS.

Take `C/C(=N\NC(=S)N1CCN(c2ccccn2)CC1)c1ncccn1`: the concentration for total growth inhibition (TGI) in the assay with HCT-116 colon was 5.05 µM and 14.7 µM; with HS 578T breast, 31.2 µM; in the assay with MDA-MB-231 breast, 19.4 µM; in the assay on MOLT-4 leukemia it was 7.02 µM and > 38.4 µM; with NCI-H522 lung, 1.45 µM and 2.06 µM; in the assay on OVCAR-5 ovarian it was 4.77 µM and 21.5 µM. Besides, the concentration for total growth inhibition (TGI) with OVCAR-8 ovarian is 5.4 µM and 16.4 µM; in the assay on T-47D breast, 18.5 µM; in the assay with TK-10 renal, 18.5 µM; in the assay with U251 CNS it was 5.45 µM and 11.8 µM. The GI50 was 3.01 µM with HS 578T breast; 0.0859 µM in the assay on NCI-H522 lung; 0.0154 µM in the assay with OVCAR-8 ovarian; 1.71 µM with TK-10 renal; 0.0796 µM in the assay with U251 CNS.

For `c1ccc(C2CCCCC2)c(OCCCCCN2CCNCC2)c1`, the GI50 is 1.65 µM in the assay with HCT-116 colon; 3.61 µM in the assay on HS 578T breast; 1.62 µM in the assay with MDA-MB-231 breast; 1.63 µM in the assay on MOLT-4 leukemia; 10.3 µM in the assay with NCI-H522 lung; 3.46 µM with OVCAR-5 ovarian. For the same molecule, the GI50 in the assay with OVCAR-8 ovarian is 13.4 µM; with T-47D breast it was 1.92 µM; with TK-10 renal, 5.67 µM; in the assay with U251 CNS, 1.82 µM. Moreover, the TGI was 4.19 µM with HCT-116 colon; 22.1 µM in the assay on HS 578T breast; 3.75 µM in the assay on MDA-MB-231 breast; 5.07 µM in the assay on MOLT-4 leukemia; 28.5 µM in the assay on NCI-H522 lung; 13 µM in the assay on OVCAR-5 ovarian. For the same molecule, the TGI was 43 µM in the assay on OVCAR-8 ovarian, 5.16 µM with T-47D breast, 19.3 µM in the assay on TK-10 renal and 4.2 µM in the assay with U251 CNS.
